Measured values taken from US10766894B2, “Aza-indazole compounds for use in tendon and/or ligament injuries” (NOVARTIS AG, priority 2016, dated 2020).
Like-named read-outs stand apart in the source and are kept apart here.

Tests used:
[1] = system: mouse immortalized TT-D6 Scx-luciferase (ScxL) cell line; transcriptional activation of Scleraxis (Scx) gene; experiment: SCX-LUC in vitro assay (scleraxis promoter luciferase reporter); assay type: cell-based; conditions: Mus musculus, 96 h
[2] = system: Scleraxis (Scx) gene expression in rat tail tendon fascicles; experiment: Ex vivo assay, tendon fascicles, Scleraxis mRNA (qPCR); assay type: cell-based, Sprague Dawley rat; conditions: 96 h
[3] = system: Tenomodulin (Tnmd) gene expression in rat tail tendon fascicles; experiment: Ex vivo assay, tendon fascicles, Tenomodulin mRNA (qPCR); assay type: cell-based, Sprague Dawley rat; conditions: 96 h
[4] = system: collagen type 1 (Col1a2) gene expression in rat tail tendon fascicles; experiment: Ex vivo assay, tendon fascicles, collagen type 1 mRNA (qPCR); assay type: cell-based, Sprague Dawley rat; conditions: 96 h
[5] = target: recombinant human Jak1 (aa 866-1154) (Homo sapiens (Human), UniProt P23458); experiment: Kinase panel, substrate peptide phosphorylation (Caliper mobility shift), JAK1; assay type: biochemical; conditions: 3 nM kinase, 45 uM ATP, 60 min at 30° C.
Sequence of recombinant human Jak1 (aa 866-1154) (P23458 866-1154): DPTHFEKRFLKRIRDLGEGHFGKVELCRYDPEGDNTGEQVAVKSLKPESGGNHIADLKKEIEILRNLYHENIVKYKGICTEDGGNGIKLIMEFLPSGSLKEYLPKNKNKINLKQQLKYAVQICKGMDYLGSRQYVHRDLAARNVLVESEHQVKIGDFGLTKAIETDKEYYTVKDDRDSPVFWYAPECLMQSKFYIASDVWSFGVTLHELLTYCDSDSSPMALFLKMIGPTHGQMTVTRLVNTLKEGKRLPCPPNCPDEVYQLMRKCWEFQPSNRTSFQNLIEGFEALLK

[6] = target: recombinant human Jak2 (aa808-1132) (Homo sapiens (Human), UniProt O60674); experiment: Kinase panel, substrate peptide phosphorylation (Caliper mobility shift), JAK2; assay type: biochemical
Sequence of recombinant human Jak2 (aa808-1132) (O60674 808-1132): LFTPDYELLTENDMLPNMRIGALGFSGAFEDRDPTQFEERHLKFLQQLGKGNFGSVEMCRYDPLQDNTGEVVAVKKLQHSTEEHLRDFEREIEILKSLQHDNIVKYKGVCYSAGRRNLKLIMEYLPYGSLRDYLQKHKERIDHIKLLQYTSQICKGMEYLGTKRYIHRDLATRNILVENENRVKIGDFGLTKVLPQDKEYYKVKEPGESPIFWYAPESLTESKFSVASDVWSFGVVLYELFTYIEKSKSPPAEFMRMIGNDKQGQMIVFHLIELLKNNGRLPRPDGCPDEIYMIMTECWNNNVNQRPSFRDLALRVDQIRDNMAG

[7] = target: recombinant human Jak3 (aa811-1124) (Homo sapiens (Human), UniProt P52333); experiment: Kinase panel, substrate peptide phosphorylation (Caliper mobility shift), JAK3; assay type: biochemical
Sequence of recombinant human Jak3 (aa811-1124) (P52333 811-1124 limits assumed): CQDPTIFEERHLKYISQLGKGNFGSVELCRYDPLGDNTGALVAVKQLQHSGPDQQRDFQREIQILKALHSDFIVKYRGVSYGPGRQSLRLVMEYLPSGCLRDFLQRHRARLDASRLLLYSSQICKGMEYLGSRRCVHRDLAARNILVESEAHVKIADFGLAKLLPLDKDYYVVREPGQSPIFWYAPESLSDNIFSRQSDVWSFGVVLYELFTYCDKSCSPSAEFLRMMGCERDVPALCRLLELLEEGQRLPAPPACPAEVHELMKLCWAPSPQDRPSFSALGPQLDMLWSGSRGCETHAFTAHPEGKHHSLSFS

[8] = target: recombinant human Tyk2 (aa888-1187) (Homo sapiens (Human), UniProt P29597); experiment: Kinase panel, substrate peptide phosphorylation (Caliper mobility shift), TYK2; assay type: biochemical; conditions: 3 nM kinase, 45 uM ATP, 60 min at 30° C.
Sequence of recombinant human Tyk2 (aa888-1187) (P29597 888-1187): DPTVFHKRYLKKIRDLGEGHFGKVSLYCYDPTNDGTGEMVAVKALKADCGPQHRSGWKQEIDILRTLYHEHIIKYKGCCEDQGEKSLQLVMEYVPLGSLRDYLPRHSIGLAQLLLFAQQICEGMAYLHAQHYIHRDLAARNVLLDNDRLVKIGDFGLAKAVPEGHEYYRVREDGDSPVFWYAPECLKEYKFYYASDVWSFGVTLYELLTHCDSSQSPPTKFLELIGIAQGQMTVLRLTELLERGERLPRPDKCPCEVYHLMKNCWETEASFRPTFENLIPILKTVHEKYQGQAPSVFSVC

[9] = Cumulative release from PLGA microparticle formulations in PBS buffer; assay type: physicochemical; conditions: incorporated into PLGA microparticles, PBS buffer pH 7.4, 1% Tween 20
Description: In the current invention, the microparticles formulation contains a copolymer of DL-lactide and glycolide in a 50:50 molar ratio with an ester end group plus Test Compound A is used. The total amount of Test Compound A incorporated into the microparticles ranges from 2% to 10% (w/w). The microparticles are formulated to mean mass range in size from 5 to 25 microns. The population of microparticles is formulated to be delivered through a 22 gauges or higher needles (see Table A below). Organic solvent was used for preparation of microparticles were dichloromethane (DCM) and ethyl acetate (EA) either alone or in combination with methanol (MeOH) and/or dimethyl sulfoxide (DMSO) e.g., ratio of MeOH/DMSO from 5-15% in DCM or EA as primary solvent. Additional excipients may be added such as, but not limited to, carboxymethylcellulose sodium, mannitol and ploxamer to achieve isotonicity and promote syringeability.
(§1) Test Compound A incorporated into the microparticles provides an initial release (burst) of about 5-10% of drug over a period of 1 to 2 days, followed by a steady state release of drug over a period of 21 days (FIG. 1). In-vivo the microparticles could extend the release of Test Compound A over 4 weeks in a rat model.

[10] = In-vivo release from microparticles in a rat model
Description: as §1

[11] = Rattus norvegicus, read-out: Ex vivo SCX (EC50 uM)
[12] = Rattus norvegicus, read-out: Ex vivo Tnmd (EC50 uM)
[13] = Rattus norvegicus, read-out: Ex vivo Col1a2 (EC50 uM)
[14] = Examples table, TT-D6 Scx-luciferase cells, 1 ng/ml TGFβ1, four days, read-out: Scx-Luc (EC50 μM)
[15] = Examples table, rat tail tendon fascicles, four days, delta-delta Ct, read-out: Ex vivo Scx (EC50 μM)
[16] = Examples table, rat tail tendon fascicles, four days, delta-delta Ct, read-out: Ex vivo Tnmd (EC50 μM)
[17] = Examples table, rat tail tendon fascicles, four days, delta-delta Ct, read-out: Ex vivo Col1a2 (EC50 μM)

Structure (SMILES)	EC50 [2, 11]	EC50 [3, 12]	EC50 [4, 13]	EC50 [1, 14]	EC50 [2, 15]	EC50 [3, 16]	EC50 [4, 17]	other results
N#C[C@H]1C[C@H](O)CC[C@@H]1n1cc(C(N)=O)c(Nc2ccc(C(F)(F)F)cc2)n1 [reference compound]	5.65 µM	3.82 µM	3.97 µM	–	–	–	–	EC50 ([1]; read-out: Scx-Luc (EC50 uM)): 2.06 µM; IC50 [5]: 0.004 µM; IC50 [6]: 0.15 µM; IC50 [7]: 10 µM; IC50 [8]: 0.11 µM
Cc1cc(S(=O)(=O)N[C@H]2C[C@](O)(C(F)(F)F)C2)ccc1-c1ccc2[nH]nc(N)c2n1 [Example 2, 4-(3-amino-1H-pyrazolo[4,3-b]pyridin-5-yl)-N-((1s,3s)-3-hydroxy-3-(trifluoromethyl)cyclobutyl)-3-methylbenzenesulfonamide]	–	–	–	0.376 µM	–	–	–	period of steady state release of drug ([9]; after initial burst): 21 days; initial release (burst) of drug ([9]; over a period of 1 to 2 days): 5-10%; extended release in-vivo [10]: 4 weeks
N#C[C@@H]1C[C@H](N2CCC2)CC[C@H]1n1cc(C(N)=O)c(Nc2ccc(C(F)(F)F)cc2)n1	5.63 µM	5.76 µM	3.65 µM	–	–	–	–	IC50 [5]: 0.002 µM; IC50 [6]: 0.24 µM; IC50 [7]: 10 µM; IC50 [8]: 0.12 µM
Cc1cc(S(=O)(=O)N2CC3CCCC3C2)ccc1-c1ccc2[nH]nc(N)c2n1 (stereo not drawn) [Example 21, 5-(4-((hexahydrocyclopenta[c]pyrrol-2(1H)-yl)sulfonyl)-2-methylphenyl)-1H-pyrazolo[4,3-b]pyridin-3-amine]	–	–	–	0.598 µM	4.93 µM	3.51 µM	3.71 µM	–
O=C(Nc1nc2cccc(-c3ccc(OCc4cccnc4)cc3)n2n1)C1CC1 [reference compound]	0.36 µM	5.99 µM	0.4 µM	–	–	–	–	EC50 ([1]; Table 1, TT-D6 Scx-luciferase cells, 1 ng/ml TGFβ1, four days, read-out: Scx-Luc (EC50 uM)): 0.02 µM
Nc1n[nH]c2ccc(-c3ccc(S(=O)(=O)N[C@H]4C[C@](O)(C(F)(F)F)C4)cc3Cl)nc12 [Example 1]	–	–	–	0.183 µM	2.11 µM	0.804 µM	1.59 µM	–
CC(=O)N1CCOc2ccc(S(=O)(=O)Nc3ccc(-c4ccc5[nH]nc(N)c5n4)c(Cl)c3)cc21 [Example 86, 4-acetyl-N-(4-(3-amino-1H-pyrazolo[4,3-b]pyridin-5-yl)-3-chlorophenyl)-3,4-dihydro-2H-benzo[b][1,4]oxazine-6-sulfonamide]	–	–	–	5.39 µM	> 10 µM	4.86 µM	> 10 µM	–
Nc1n[nH]c2ccc(-c3ccc(S(=O)(=O)NC4CCCCC4O)cc3Cl)nc12 (stereo not drawn) [Example 12, 4-(3-amino-1H-pyrazolo[4,3-b]pyridin-5-yl)-3-chloro-N-(2-hydroxycyclohexyl)benzenesulfonamide]	–	–	–	0.765 µM	5.79 µM	5.39 µM	4.62 µM	–
CS(=O)(=O)C1CN(S(=O)(=O)c2ccc(-c3ccc4[nH]nc(N)c4n3)c(Cl)c2)C1 [Example 93, 5-(2-chloro-4-((3-(methylsulfonyl)azetidin-1-yl)sulfonyl)phenyl)-1H-pyrazolo[4,3-b]pyridin-3-amine]	–	–	–	5.74 µM	2.95 µM	3.52 µM	1.76 µM	–
N#C[C@H]1C[C@@H](N2CCC2)CC[C@@H]1n1cc(C(N)=O)c(Nc2ccc(C(F)(F)F)cc2)n1 [reference compound]	1.16 µM	0.08 µM	0.42 µM	–	–	–	–	EC50 ([1]; read-out: Scx-Luc (EC50 uM)): 2.05 µM; IC50 [5]: 0.04 µM; IC50 [6]: 2.7 µM; IC50 [7]: 10 µM; IC50 [8]: 1.8 µM
Nc1n[nH]c2ccc(-c3ccc(NS(=O)(=O)c4ccc(Cl)cc4)cc3Cl)nc12 [Example 3, N-(4-(3-amino-1H-pyrazolo[4,3-b]pyridin-5-yl)-3-chlorophenyl)-4-chlorobenzenesulfonamide]	–	–	–	0.801 µM	> 10 µM	1.15 µM	3.08 µM	–
Nc1n[nH]c2ccc(-c3ccc(S(=O)(=O)N4CC5CC5C4)cc3Cl)nc12 (stereo not drawn) [Example 63, 5-(4-(3-azabicyclo[3.1.0]hexan-3-ylsulfonyl)-2-chlorophenyl)-1H-pyrazolo[4,3-b]pyridin-3-amine]	–	–	–	1.24 µM	2.12 µM	4.6 µM	3.34 µM	–
Nc1n[nH]c2ccc(-c3ccc(S(=O)(=O)N[C@@H]4CCC[C@@H]4O)cc3Cl)nc12 [Example 7, 4-(3-amino-1H-pyrazolo[4,3-b]pyridin-5-yl)-3-chloro-N-((1R,2S)-2-hydroxycyclopentyl)benzenesulfonamide]	–	–	–	0.305 µM	1.6 µM	1.68 µM	2.06 µM	–
